Assay results as given in PubChem BioAssay AID1918933 (Molecular Pharmacology Branch, DTP, NCI, 2023).

Test system: 186277-243-T-J2-PDC complex spheroid viability
Assay: Anticancer human tumor 186277-243-T-J2-PDC patient-derived colon adenocarcinoma cell line growth inhibition
Conditions: for IC50: curve of first compound; for viability, T/C: stronger effect = lower value; active = viability on the fitted dose curve at most 10% of control; inactive = the rest
Description: Multicellular complex tumor spheroid response to LSD1 Inhibitor Iadademstat in combination with a variety of drugs and investigational agents in selected tumor cell lines
The current study was undertaken to assess response to LSD1 inhibitors in combination with standard-of-care drugs and investigational agents in solid tumor complex spheroid models as well as in the K-562 leukemia. Complex spheroids include a stromal component modeled by human endothelial cells (HUVEC) and fibroblasts modeled by human mesenchymal stem cells (MSCs). The concentration ranges selected for each drug and investigational agent were based upon clinically achievable concentrations if the clinical Cmax of the agent was known.
Compounds. The drugs and investigational agents used in this study are listed on Table 1. All of the agents used, including staurosporine (NSC755774) and gemcitabine (NSC613327), were obtained from the Developmental Therapeutics Program, NCI. FDA-approved anticancer drugs are available from the NCI at http://dtp.nci.nih.gov/branches/dscb/oncology_drugset_explanation.html. Drugs and investigational agents were >95% pure by proton nuclear magnetic resonance (NMR) and liquid chromatography/mass spectrometry (LC/MS). Stock solutions were prepared at 400x in DMSO, stored at -70 degrees C, and diluted in fresh medium prior to their use. The final concentration of DMSO in cell culture wells never exceeded 0.25% (v/v). The FDA-approved anticancer drug set is available from the Developmental Therapeutics Program at https://dtp.cancer.gov/organization/dscb/obtaining/available_plates.htm. All drugs and investigational agents were tested over a range starting from a high concentration at or near the clinical Cmax and decreasing in half-log increments. If the clinical Cmax for an agent had not been determined, the highest concentration tested was 10 microM.
Cell Lines. The patient-derived cancer cell (PDC) lines: 292921-168-R-J2-PDC, K24384-001-R-PDC, and 521955-158-R2-J5-PDC pancreatic carcinomas, 556581-035-R-J1 ovarian carcinoma, 324938-238-R-J1-PDC, 855422-203-R-J1-PDC and 883617-216-R-J1-PDC urothelial bladder carcinomas, 743489-274-T-PDC renal cell carcinoma, 138582-R-J1 Merkel cell tumor, K60290-347-R-J1 and K57222-313-R-J1-PDC glioblastomas, 653999-131-R-J2-PDC, LG0703-F948-PDC, and 349418-098-R-PDC non-small cell lung carcinomas, 885512-296-R-J2-PDC, 171881-019-R-J1-PDC breast carcinomas and 186277-243-T-J2-PDC and 233499-124-R-J2-PDC colon carcinomas were obtained from the NCI Patient-Derived Models Repository (PDMR, https://pdmr.cancer.gov). The established cell lines NCI/ADR-RES (RRID:CVCL_14520 and OVCAR-5 (RRID:CVCL_1628) ovarian carcinomas, 786-O (RRID:CVCL_1051) and A498 (RRID:CVCL_A498) renal cell carcinoma, NCI-H211 (ATCC, cat. CRL-5824; RRID:CVCL_1529), NCI-H196 (ATCC, cat. CRL-5823, RRID:CVCL_1509), SW 1271 (ATCC, cat. CRL-2177, RRID:CVCL_1716) and NCI-H1876 (ATCC, cat. CRL-5902, RRID:CVCL_1503) small cell lung carcinomas, MDA-MB-231 (RRID:CVCL_0062) and MDA-MB-468 (RRID:CVCL_0419)breast carcinomas (10-12). Pooled donor human umbilical vein endothelial cells (HUVEC, Lonza, cat. CC-2519) and human mesenchymal stem cells (hMSC, Lonza, cat. PT-2501) were purchased from Lonza (Walkersville, MD).
Cell Culture. All cells were maintained in an incubator at 37 degrees C and 5% CO2 with 95% humidity. The PDC lines were cultured according to standard operating procedures established by the NCI PDMR (https://pdmr.cancer.gov). Briefly all PDCs were thawed and cultured in Matrigel-coated flasks prepared with a working solution of 1X Ham's F-12 nutrient mix, without supplementation (Invitrogen, Waltham, MA, cat. 11765054), 100 U/mL penicillin-streptomycin (Invitrogen, cat. 15140122), and 2.5% Matrigel (Corning Inc., Corning, NY, cat. 354248) for the first three passages. […]
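Note: 7 day exposure to compounds.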

Nc1ccn(C2OC(CO)C(O)C2(F)F)c(=O)n1 (stereo not given) + NC1CC1c1ccc(-c2cccc(O)c2)cc1
2.31 nM: IC50 (second compound 3.16 µM)
2.18 nM: IC50 (second compound 0.316 µM)
2.41 nM: IC50 (second compound 0.1 µM)
2.52 nM: IC50 (second compound 1 µM)
2.34 nM: IC50 (second compound 10 µM)
inactive: viability, T/C (second compound 0.1 µM, first compound 0.000949 µM) 112% | viability, T/C (second compound 0.1 µM, first compound 0.003 µM) 35.5% | viability, T/C (second compound 0.1 µM, first compound 0.00949 µM) 14.2% | viability, T/C (second compound 0.1 µM, first compound 0.03 µM) 11.6% | viability, T/C (second compound 0.1 µM, first compound 0.0949 µM) 12.2% | viability, T/C (second compound 0.1 µM, first compound 0.3 µM) 13.4% | viability, T/C (second compound 0.316 µM, first compound 0.000949 µM) 103% | viability, T/C (second compound 0.316 µM, first compound 0.003 µM) 29.9% | viability, T/C (second compound 0.316 µM, first compound 0.00949 µM) 14.5% | viability, T/C (second compound 0.316 µM, first compound 0.03 µM) 12% | viability, T/C (second compound 0.316 µM, first compound 0.0949 µM) 12.2% | viability, T/C (second compound 0.316 µM, first compound 0.3 µM) 12.8% | viability, T/C (second compound 1 µM, first compound 0.000949 µM) 116% | viability, T/C (second compound 1 µM, first compound 0.003 µM) 38.4% | viability, T/C (second compound 1 µM, first compound 0.00949 µM) 14.9% | viability, T/C (second compound 1 µM, first compound 0.03 µM) 12.2% | viability, T/C (second compound 1 µM, first compound 0.0949 µM) 11.9% | viability, T/C (second compound 1 µM, first compound 0.3 µM) 13.6% | viability, T/C (second compound 3.16 µM, first compound 0.000949 µM) 103% | viability, T/C (second compound 3.16 µM, first compound 0.003 µM) 34.3% | viability, T/C (second compound 3.16 µM, first compound 0.00949 µM) 15.8% | viability, T/C (second compound 3.16 µM, first compound 0.03 µM) 11.7% | viability, T/C (second compound 3.16 µM, first compound 0.0949 µM) 13.8% | viability, T/C (second compound 3.16 µM, first compound 0.3 µM) 13.4% | viability, T/C (second compound 10 µM, first compound 0.000949 µM) 98.2% | viability, T/C (second compound 10 µM, first compound 0.003 µM) 36.7% | viability, T/C (second compound 10 µM, first compound 0.00949 µM) 15.5% | viability, T/C (second compound 10 µM, first compound 0.03 µM) 11.2% | viability, T/C (second compound 10 µM, first compound 0.0949 µM) 12.7% | viability, T/C (second compound 10 µM, first compound 0.3 µM) 13.5%

O=C(c1cc(Cc2n[nH]c(=O)c3ccccc23)ccc1F)N1CCN(C(=O)C2CC2)CC1 + NC1CC1c1ccc(-c2cccc(O)c2)cc1
> 10000 nM: IC50 (second compound 0.1 µM) | IC50 (second compound 0.316 µM) | IC50 (second compound 1 µM) | IC50 (second compound 3.16 µM) | IC50 (second compound 10 µM)
inactive: viability, T/C (second compound 0.1 µM, first compound 0.0316 µM) 98.8% | viability, T/C (second compound 0.1 µM, first compound 0.1 µM) 89.7% | viability, T/C (second compound 0.1 µM, first compound 0.316 µM) 95.4% | viability, T/C (second compound 0.1 µM, first compound 1 µM) 103% | viability, T/C (second compound 0.1 µM, first compound 3.16 µM) 122% | viability, T/C (second compound 0.1 µM, first compound 10 µM) 107% | viability, T/C (second compound 0.316 µM, first compound 0.0316 µM) 101% | viability, T/C (second compound 0.316 µM, first compound 0.1 µM) 101% | viability, T/C (second compound 0.316 µM, first compound 0.316 µM) 110% | viability, T/C (second compound 0.316 µM, first compound 1 µM) 92.6% | viability, T/C (second compound 0.316 µM, first compound 3.16 µM) 121% | viability, T/C (second compound 0.316 µM, first compound 10 µM) 98.5% | viability, T/C (second compound 1 µM, first compound 0.0316 µM) 106% | viability, T/C (second compound 1 µM, first compound 0.1 µM) 92.7% | viability, T/C (second compound 1 µM, first compound 0.316 µM) 97.4% | viability, T/C (second compound 1 µM, first compound 1 µM) 95.1% | viability, T/C (second compound 1 µM, first compound 3.16 µM) 120% | viability, T/C (second compound 1 µM, first compound 10 µM) 106% | viability, T/C (second compound 3.16 µM, first compound 0.0316 µM) 84.6% | viability, T/C (second compound 3.16 µM, first compound 0.1 µM) 101% | viability, T/C (second compound 3.16 µM, first compound 0.316 µM) 95.8% | viability, T/C (second compound 3.16 µM, first compound 1 µM) 103% | viability, T/C (second compound 3.16 µM, first compound 3.16 µM) 115% | viability, T/C (second compound 3.16 µM, first compound 10 µM) 108% | viability, T/C (second compound 10 µM, first compound 0.0316 µM) 87.9% | viability, T/C (second compound 10 µM, first compound 0.1 µM) 92% | viability, T/C (second compound 10 µM, first compound 0.316 µM) 93.8% | viability, T/C (second compound 10 µM, first compound 1 µM) 85.4% | viability, T/C (second compound 10 µM, first compound 3.16 µM) 120% | viability, T/C (second compound 10 µM, first compound 10 µM) 98.5%
